Earlier results in paper PMC8154576, “GPR120/FFAR4 Pharmacology: Focus on Agonists in Type 2 Diabetes Mellitus Drug Discovery” (Journal of Medicinal Chemistry, 2021).
Like-named read-outs stand apart in the source and are kept apart here. Marks after values point to notes of the source that are not given here. Each block holds one compound with its values, some of them ahead of it.

Legend:
GPR120 [1] = test system: GPR120
[2] = test system: MCF-7 and MDA-MB-231 cell lines; parameters: method as in PMID 26821052
[3] = test system: pancreatic cancer PANC-1 cells; parameters: method as in PMID 26282200
MDA-MB-231 cell line = test system: MDA-MB-231 cell line; parameters: method as in PMID 28456993
[4] = test system: rat’s anterior pituitary adenoma GH3 cells; parameters: method as in PMID 29843779
[5] = test system: Zucker diabetic fatty rats; parameters: method as in PMID 28148462; conditions: 2 weeks, vehicle 192 mg/dL
hGPR40 [6] = conditions: for EC50: read-out: hGPR40 EC50 (Ca2+)
db/db mice = test system: db/db mice; parameters: method as in PMID 28148462; conditions: at the same concentrations (10 and 100 mg/kg), vehicle 276 mg/dL
hGPR120 [7] = test system: hGPR120
C57BL/6J mice = conditions: for reduction of plasma glucose, ΔAUC in IPGTT: C57BL/6J mice
hGPR120 [8] = conditions: for EC50: read-out: hGPR120 EC50 (β-arr)
mice = conditions: for reduction of plasma glucose, ΔAUC in OGTT: C57BL/6DIO mice
[9] = not given; remark: listed apart in the source
hGPR120 [10] = conditions: for EC50: Table 3, read-out: hGPR120 EC50 (IP1)
hGPR40 [11] = test system: hGPR40
mGPR120 = test system: mGPR120; parameters: method as in PMID 27815121
[12] = not given; remark: listed apart in the source
[13] = parameters: method as in PMID 24881566
[14] = test system: human intestinal NCI-H716 cell line; parameters: method as in PMID 24881566
MIN6 cell line = test system: MIN6 cell line; parameters: method as in PMID 24881566; conditions: glucose 25 mM, compared to glibenclamide
[15] = parameters: method as in PMID 27570890
STC-1 cells = conditions: enteroendocrine STC-1 cell line
GPR120 [16] = test system: GPR120; parameters: method as in PMID 29206860; conditions: cAMP assay in a CHO cell line; read-out: EC50 increase of cAMP levels
lean mice = test system: lean mice; parameters: method as in PMID 29206860; conditions: pretreatment
[17] = Table 2, read-out: hGPR120 EC50 (Ca2+)
[18] = Table 3, read-out: hGPR40 EC50 (IP1)

Compound: CCCCC/C=C\C/C=C\CCCCCCCC(=O)OC [1’s methyl ester]
GPR120 activity in vitro (GPR120 [1]): inactive in vitro

Compound: Cc1ccc(S(=O)(=O)NC2c3ccccc3Oc3ccccc32)cc1 [Compound 5]
migration induced by 1 (MDA-MB-231 cell line): inhibited

Compound: CC(C)=CCC/C(C)=C/CC/C(C)=C/Cc1c(O)cc(C)c(C(=O)O)c1O [Compound 7, grifolic acid]
necrosis of GH3 cells [4]: dose- and time-dependently induced the necrosis

oral bioavailability (C57BL/6J mice): excellent oral bioavailability | EC50 (hGPR40 [6]; Table 1): 11800 nM | EC50 (hGPR120 [7]; Table 1, read-out: hGPR120 EC50 (Ca2+)): 299 nM
Compound: COc1ccc(C(F)(F)F)cc1COc1ccc(CCC(=O)O)cc1C [Compound 19]
whole blood glucose levels ([5]; 10 mg/kg): 151 mg/dL | whole blood glucose levels ([5]; 100 mg/kg): 139 mg/dL | selectivity GPR120/GPR40, mouse (mouse GPR120): 80 fold | glucose levels (db/db mice): 106 mg/dL | selectivity GPR120/GPR40, human (hGPR120 [7]): 40 fold

pharmacokinetic (PK) profile: good pharmacokinetic (PK) profile | EC50 (hGPR120 [7]; [17]): 57 nM | EC50 (hGPR120 [8]; Table 2): 60 nM
Compound: CCc1ccc(-c2noc(C(F)(F)F)c2COc2c(F)cc(CCC(=O)O)cc2F)cc1 [Compound 20]
reduction of plasma glucose, ΔAUC in IPGTT (C57BL/6J mice; 1 mg/kg): 30% | reduction of plasma glucose, ΔAUC in IPGTT (C57BL/6J mice; 3 mg/kg): 35% | reduction of plasma glucose, ΔAUC in IPGTT (C57BL/6J mice; 10 mg/kg): 54%

EC50 (hGPR40 [6]; Table 2): > 5000 nM | EC50 (hGPR120 [7]; [17]): 42 nM | EC50 (hGPR120 [8]; Table 2): 143 nM | pharmacokinetic profile [9]: good pharmacokinetic profile
Compound: O=C(O)CCc1cc(F)c(OCc2c(-c3ccc(Cl)cc3F)nsc2C(F)(F)F)c(F)c1 [Compound 21]
reduction of plasma glucose, ΔAUC in OGTT (mice; 1 mg/kg): 61% | reduction of plasma glucose, ΔAUC in OGTT (mice; 3 mg/kg): 83%

EC50 (mouse GPR120; read-out: EC50 GPR120 calcium assay in mouse): 193 nM | EC50 (hGPR40 [6]; Table 2): 3340 nM | EC50 (hGPR120 [7]; [17]): 80 nM | EC50 (hGPR120 [7]; low-expressing endogenous HT-29 cell line, read-out: EC50 hGPR120 calcium assay): 137 nM | EC50 (hGPR120 [8]; Table 2): 69 nM | clearance ([9]; mouse, rat, and dog): low clearance | half-life ([9]; mouse, rat, and dog): suitable half-life
Compound: O=C(O)CCc1cc(F)c(OCc2c(C(F)(F)F)ccn2-c2ccc(Cl)cc2)c(F)c1 [Compound 22]
GPR120 selectivity over GPR40, mouse (mouse GPR120; calcium assay): 18 fold | reduction in glucose levels in OGTT (mice; diet-induced obese mice, 3 mg/kg, vs saxagliptin 1 mg/kg): comparable to saxagliptin | GPR120 selectivity over GPR40, human (hGPR120 [7]; calcium assay): 42 fold

PK properties (oral bioavailability, half-life, plasma clearance) (mouse): suitable PK properties | percentage of receptor activation, hGPR120 (hGPR120 [10]): 73% | EC50 (hGPR120 [10]): 63 nM | EC50 (hGPR40 [11]; read-out: IP1 EC50 GPR40): 1830 nM | percentage of receptor activation, mGPR120 (mGPR120): 75%
Compound: O=C(O)CCc1cc2cc(-c3cc(C(F)(F)F)ccc3F)ccc2o1 [Compound 23]
selectivity over hGPR40 (hGPR120 [10]): 29 fold | blood glucose levels in OGTT (mice; wild-type and GPR120 KO mice, 30 and 100 mg/kg): acute reduction of blood glucose levels

EC50 (hGPR120 [10]): 35 nM | EC50 (hGPR40 [11]; [18]): > 10000 nM | EC50 (hGPR120 [8]; Table 3): 24 nM | half-life ([9]; several species): long half-life | oral bioavailability ([9]; several species): high oral bioavailability
Compound: COC1CC(Oc2cc(F)c(F)c(-c3ccc4c(c3)CCC(CCC(=O)O)O4)c2)C1 (centres unmarked) [Compound 24]
in vivo efficacy in OGTT (mice): good in vivo efficacy | glucose levels in OGTT (mice; 3 and 10 mg/kg): dose-dependently reduced glucose levels

EC50 (hGPR120 [10]): 220 nM | EC50 (hGPR40 [11]; [18]): > 10000 nM | EC50 (hGPR120 [8]; Table 3): 84 nM
Compound: Fc1ccc(OC2CCC2)cc1-c1ccc2c(c1)CC[C@H](CCc1nnn[nH]1)O2 [Compound 25]
in vivo efficacy in OGTT (mice): good in vivo efficacy

Compound: O=C(O)CC1CCC2(CC1)CCN(c1cc(OC(F)(F)F)ccc1Cl)CC2 [Compound 26]
EC50 (hGPR40 [11]; [18]): > 10000 nM | insulin resistance (HOMA-IR) (DIO mice; hyperinsulinemic-euglycemic DIO mouse clamp, days 14 and 28): reduction in insulin resistance | whole blood glucose levels in OGTT (mice; lean mice (wild-type/GPR120 KO), 30 and 100 mg/kg): dose-dependently reduced whole blood glucose levels | unbound clearance ([9]; rat, mouse, dog, and Rhesus): too high unbound clearance

EC50 (hGPR40 [6]; Table 3): > 100000 nM | EC50 (muGPR40; FLIPR format, overexpressed mouse GPR40 in cell line, unit inferred): > 100000 nM | EC50 (hGPR120 [7]; Table 3, read-out: hGPR120 EC50 (Ca2+)): 740 nM | oral exposure [9]: moderate oral exposure
Compound: Cc1ccc(-n2nc(C)c3cnc(-c4ccc([C@@H]5C[C@H]5C(=O)O)cc4F)cc32)nc1 [Compound 28]
selectivity over 30 several targets [12]: good selectivity | decrease in oral glucose excursion in OGTT (mice; C57BL/6J mice): 45% | effect on glucose excursion in OGTT (mice; GPR120 KO mice): no effect | reduction of glucose excursion in OGTT (mice; wild-type mice): 47%

Compound: OCCCc1c(F)cc(OCc2c(-c3ccc(Cl)cc3)csc2C(F)(F)F)cc1F [Compound 30]
outcome in IPGTT (C57BL/6J mice; GPR120 C57BL6 mice): positive outcomes | outcome in OGTT (mice; GPR120 DIO mice): positive outcomes

solubility in simulated intestinal fluid (FASSIF) [13]: weak solubility | hGPR40 pEC50 (Ca2+) (hGPR40 [6]; Table 4): <4.5 ^d | hGPR120 pEC50 (Ca2+) (hGPR120 [7]; Table 4): 6.3 ^d
Compound: COc1ccc(S(=O)(=O)Nc2c(C)cc(C)cc2C)cc1 [Compound 31]
selectivity for GPR120 over more than 65 targets, including GPR40, GPR43, GPR41 [12]: at least 100 fold | GLP-1 secretion [14]: evoked GLP-1 secretion | insulin output in GSIS (MIN6 cell line): dose-dependently increased insulin output

solubility in PBS [15]: relatively low solubility | hGPR120 pEC50 (Ca2+) (hGPR120 [7]; Table 4): 6.63 ^d | hGPR120 pEC50 (β-arr) (hGPR120 [8]; Table 4): 6.91 ^d
Compound: O=S1(=O)c2ccccc2CN1c1cc(F)cc(Oc2ccccn2)c1 [Compound 32]
selectivity for GPR120 over GPR40 (GPR120 [1]): > 300 fold | decrease in body weight, chronic study (DIO mice; DIO wild-type mice): 7–9% | glucose levels, chronic study (DIO mice; DIO wild-type mice): reduced glucose levels | effect in chronic study (DIO mice; mice lacking GPR120): no effect | glucose levels in OGTT (mice; C57BL6 mice, 10 mg/kg orally, compared to vehicle control): decrease in glucose levels

EC50 (GPR120 [16]): 60 nM | EC50 (hGPR120 [7]; Table 4, read-out: hGPR120 EC50 (Ca2+)): 120 nM
Compound: C#Cc1cc(Oc2cccnc2)cc(N2Cc3ccccc3S2(=O)=O)c1 [Compound 33]
GLP-1 secretion (STC-1 cells): boost GLP-1 secretion | activity against mGPR40 (muGPR40): no activity | glucose levels in OGTT (mice; lean male mice): reduce dose-dependently glucose levels | insulin concentration in IVGTT (lean mice): increase of insulin concentration

Compound: N#C[C@@H]1C[C@@H]2C[C@@H]2N1C(=O)[C@@H](N)C12CC3CC(CC(O)(C3)C1)C2 [saxagliptin]
reduction of plasma glucose, ΔAUC in OGTT (mice; 1 mg/kg): 87%
